{
  "source": "patent US20100076017A1",
  "about": "“SITAMAQUINE TOSYLATE FOR THE TREATMENT OF LEISHMANIASIS” (priority 2006, published 2010)",
  "test": "hygroscopicity / developability characteristics of the salt form",
  "type": "physicochemical",
  "conditions": "solid salt form; poor developability characteristics",
  "text": "This means that reproducibility of standard batches of drug is very difficult, and that the drug would have a very short shelf life in those countries where it is particularly needed.",
  "note": "Structures can show the parent of a compound that is named as a salt.",
  "data": [
    {"molecule": "CCN(CC)CCCCCCNc1cc(OC)cc2c(C)ccnc12", "note": "[dihydrochloride salt, N,N-diethyl-N′-(6-methoxy-4-methyl-8-quinolinyl)-1,6-hexane diamine]", "values": [
      {"measurement": "relative humidity at which the salt is hygroscopic", "result": "about 60 % relative humidity"}
    ]}
  ]
}
